Results as given in patent US20230271964A1, “5-AMINO-8-(4-PYRIDYL)-[1,2,4]TRIAZOLO[4,3-C]PYRIMIDIN-3-ONE COMPOUNDS FOR USE AGAINST CANCER” (ASTRAZENECA AB, priority 2020, published 2023).

Columns and labels:
human CB1 receptor = human CB1 receptor (Homo sapiens (Human), UniProt P21554); assay: CB1 receptor antagonism, agonist-induced cAMP modulation (HTRF) in transfected CHO cells; assay type: cell-based; conditions: read-out: Antag IC50
Protocol: Receptor antagonism: Evaluation of the antagonist activity of compounds at the human CB1 receptor expressed in transfected CHO cells, determined by measuring their effects on agonist-induced cAMP modulation using the HTRF detection method.
Thereafter, the reference agonist CP 55940 and the adenylyl cyclase activator NKH 477 are added at respective final concentrations of 3 nM and 3 µM.
For basal control measurements, CP 55940 is omitted from the wells containing 3 µM AM 281.
Following 20 min incubation at 37° C., the cells are lysed and the fluorescence acceptor (D2-labeled cAMP) and fluorescence donor (anti-cAMP antibody labeled with europium cryptate) are added.
After 60 min at room temperature, the fluorescence transfer is measured at λex=337 nm and λem=620 and 665 nm using a microplate reader (Rubystar, BMG). The cAMP concentration is determined by dividing the signal measured at 665 nm by that measured at 620 nm (ratio).
The standard reference antagonist is AM 281, which is tested in each experiment at several concentrations to generate a concentration-response curve from which its IC50 value is calculated.

[1] = molecular target: human adenosine A2A receptor (Homo sapiens (Human), UniProt P29274); assay: Adenosine receptor inhibition binding assay, [3H]ZM241385, HEK293 A2A receptor membranes; conditions: 1 nM [3H]ZM241385, HEK293-hA2A membranes, 25° C., 1 h, Ki from IC50 by Cheng-Prusoff; for Ki: read-out: A2A pKi (converted)
Method in brief: (§1)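 Membranes from BacMam-transduced HEK293 cells (0.2 µg A2A; 1.4 µg A1) incubated 1 h at 25 °C with 1 nM radioligand; A2A in 50 mM Tris-HCl pH 7.4, A1 buffer adds 100 mM NaCl, 10 mM MgCl2. Nonspecific binding: 1 µM CGS 15943 (A2A) or 1 µM DPCPX (A1). Filtration, scintillation counting; IC50 converted to Ki via Cheng-Prusoff.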

[2] = molecular target: human adenosine A1 receptor (Homo sapiens (Human), UniProt P30542); assay: Adenosine receptor inhibition binding assay, [3H]DPCPX, A1 receptor membranes; conditions: 1 nM [3H]DPCPX, 25° C., 1 h, Ki from IC50 by Cheng-Prusoff; for Ki: read-out: A1 pKi (converted)
Method in brief: as §1

Sequence of human adenosine A1 receptor (P30542 whole entry): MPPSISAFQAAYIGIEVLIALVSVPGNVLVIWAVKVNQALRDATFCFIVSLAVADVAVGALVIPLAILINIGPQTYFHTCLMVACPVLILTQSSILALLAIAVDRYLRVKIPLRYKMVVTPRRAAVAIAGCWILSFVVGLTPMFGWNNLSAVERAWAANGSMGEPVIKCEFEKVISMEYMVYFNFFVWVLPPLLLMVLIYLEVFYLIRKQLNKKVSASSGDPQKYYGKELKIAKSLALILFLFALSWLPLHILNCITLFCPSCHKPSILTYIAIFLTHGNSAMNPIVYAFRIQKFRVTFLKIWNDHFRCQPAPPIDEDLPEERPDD
Sequence of human adenosine A2A receptor (P29274 whole entry): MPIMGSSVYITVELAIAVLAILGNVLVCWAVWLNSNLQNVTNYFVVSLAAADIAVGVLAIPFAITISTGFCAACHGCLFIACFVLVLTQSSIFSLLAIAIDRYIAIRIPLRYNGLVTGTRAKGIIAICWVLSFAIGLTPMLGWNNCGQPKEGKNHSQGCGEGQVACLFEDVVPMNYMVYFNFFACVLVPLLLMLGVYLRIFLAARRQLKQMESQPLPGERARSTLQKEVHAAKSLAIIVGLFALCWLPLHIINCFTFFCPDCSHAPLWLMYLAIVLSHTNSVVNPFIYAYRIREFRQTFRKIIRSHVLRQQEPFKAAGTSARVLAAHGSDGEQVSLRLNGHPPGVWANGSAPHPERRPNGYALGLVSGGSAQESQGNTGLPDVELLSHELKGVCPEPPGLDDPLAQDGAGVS
Sequence of human CB1 receptor (P21554 whole entry): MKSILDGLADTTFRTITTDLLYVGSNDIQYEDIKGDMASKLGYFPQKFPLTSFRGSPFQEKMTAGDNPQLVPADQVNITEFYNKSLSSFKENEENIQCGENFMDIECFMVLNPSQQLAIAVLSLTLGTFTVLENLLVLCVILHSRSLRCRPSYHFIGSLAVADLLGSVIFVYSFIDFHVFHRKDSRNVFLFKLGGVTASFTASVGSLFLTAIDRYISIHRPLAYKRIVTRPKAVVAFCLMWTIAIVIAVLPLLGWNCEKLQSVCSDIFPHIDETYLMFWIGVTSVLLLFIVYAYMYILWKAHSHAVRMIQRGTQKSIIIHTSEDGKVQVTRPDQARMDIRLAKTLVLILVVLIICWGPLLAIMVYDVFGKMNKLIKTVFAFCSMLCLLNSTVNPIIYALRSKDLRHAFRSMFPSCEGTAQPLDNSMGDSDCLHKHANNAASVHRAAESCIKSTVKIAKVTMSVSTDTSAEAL

| IC50 (human CB1 receptor) [µM] | A2A pKi [1] | A1 pKi [2] | Ki [1] [µM] | Ki [2] [µM] | SMILES |
| --- | --- | --- | --- | --- | --- |
| – | – | – | 0.001 | 0.501 | [2H]c1c([2H])c([2H])c(-c2nc(N)n3c(=O)n(C[C@H]4CCCO4)nc3c2-c2cc(C)nc(CO)c2)c([2H])c1[2H] [Example 2-30, 5-amino-8-[2-(hydroxymethyl)-6-methyl-4-pyridyl]-7-(2,3,4,5,6-pentadeuteriophenyl)-2-[[(2R)-tetrahydrofuran-2-yl]methyl]-[1,2,4]triazolo[4,3-c]pyrimidin-3-one] |
| – | 8.4 | 6.1 | – | – | Cc1cc(-c2c(-c3ccc(F)cc3)nc(N)n3c(=O)n(C[C@H]4CCCO4)nc23)cc(CO)n1 [Example 2-31, 5-amino-7-(4-fluorophenyl)-8-[2-(hydroxymethyl)-6-methyl-4-pyridyl]-2-[[(2R)-tetrahydrofuran-2-yl]methyl]-[1,2,4]triazolo[4,3-c]pyrimidin-3-one] |
| – | – | – | 0.000316 | 0.158 | [2H]c1c([2H])c([2H])c(-c2nc(N)n3c(=O)n(C[C@H]4CCCO4)nc3c2-c2cc(Cl)nc(CO)c2)c([2H])c1[2H] [Example 2-33, 5-amino-8-[2-chloro-6-(hydroxymethyl)-4-pyridyl]-7-(2,3,4,5,6-pentadeuteriophenyl)-2-[[(2R)-tetrahydrofuran-2-yl]methyl]-[1,2,4]triazolo[4,3-c]pyrimidin-3-one] |
| – | 9.4 | 6.3 | – | – | Nc1nc(-c2ccc(F)cc2)c(-c2cc(Cl)nc(CO)c2)c2nn(C[C@H]3CCCO3)c(=O)n12 [Example 2-34, 5-amino-8-[2-chloro-6-(hydroxymethyl)-4-pyridyl]-7-(4-fluorophenyl)-2-[[(2R)-tetrahydrofuran-2-yl]methyl]-[1,2,4]triazolo[4,3-c]pyrimidin-3-one] |
| – | – | – | 0.000794 | 1.26 | [2H]c1c([2H])c([2H])c(-c2nc(N)n3c(=O)n(C[C@H]4CCCO4)nc3c2-c2cc(CO)nc(OC)c2)c([2H])c1[2H] [Example 2-36, 5-amino-8-[2-(hydroxymethyl)-6-methoxy-4-pyridyl]-7-(2,3,4,5,6-pentadeuteriophenyl)-2-[[(2R)-tetrahydrofuran-2-yl]methyl]-[1,2,4]triazolo[4,3-c]pyrimidin-3-one] |
| – | 9.0 | 5.5 | – | – | COc1cc(-c2c(-c3ccc(F)cc3)nc(N)n3c(=O)n(C[C@H]4CCCO4)nc23)cc(CO)n1 [Example 2-37, 5-amino-7-(4-fluorophenyl)-8-[2-(hydroxymethyl)-6-methoxy-4-pyridyl]-2-[[(2R)-tetrahydrofuran-2-yl]methyl]-[1,2,4]triazolo[4,3-c]pyrimidin-3-one] |
| – | 6.9 | 5.6 | – | – | Cc1cc(-c2c(-c3ccccc3)nc(N)n3c(=O)n(CCNC4CCN(C(=O)c5cccnc5)C4)nc23)cc(C)n1 (stereo not drawn) [Example 3-2, 5-amino-8-(2,6-dimethyl-4-pyridyl)-7-phenyl-2-[2-[[1-(pyridine-3-carbonyl)pyrrolidin-3-yl]amino]ethyl]-[1,2,4]triazolo[4,3-c]pyrimidin-3-one] |
| – | 7.2 | 5.7 | – | – | Cc1cc(-c2c(-c3ccccc3)nc(N)n3c(=O)n(CCN(C)c4cn[nH]c4)nc23)cc(C)n1 [Example 3-3, 5-amino-8-(2,6-dimethyl-4-pyridyl)-2-[2-[methyl(1H-pyrazol-4-yl)amino]ethyl]-7-phenyl-[1,2,4]triazolo[4,3-c]pyrimidin-3-one] |
| – | 8.9 | <6.0 | – | – | Cc1cc(-c2c(N3CCCCC3)nc(N)n3c(=O)n(Cc4ncoc4C)nc23)cc(C)n1 [Example 4-1, 5-amino-8-(2,6-dimethyl-4-pyridyl)-2-[(5-methyloxazol-4-yl)methyl]-7-(1-piperidyl)-[1,2,4]triazolo[4,3-c]pyrimidin-3-one] |

Second part, the compound before the results:

| SMILES | IC50 (human CB1 receptor) [µM] | A2A pKi [1] | A1 pKi [2] | Ki [1] [µM] | Ki [2] [µM] |
| --- | --- | --- | --- | --- | --- |
| Cc1cc(-c2c(-c3ccccc3)nc(N)n3c(=O)n(CCc4nnnn4C)nc23)cc(C)n1 [Example 1-5, 5-amino-8-(2,6-dimethyl-4-pyridyl)-2-[2-(1-methyltetrazol-5-yl)ethyl]-7-phenyl-[1,2,4]triazolo[4,3-c]pyrimidin-3-one] | > 100 | 7.2 | <5.4 | – | – |
| Cc1cc(-c2c(-c3ccccc3)nc(N)n3c(=O)n(Cc4ccn(C)n4)nc23)cc(C)n1 [Example 1-16, 5-amino-8-(2,6-dimethyl-4-pyridyl)-2-[(1-methylpyrazol-3-yl)methyl]-7-phenyl-[1,2,4]triazolo[4,3-c]pyrimidin-3-one] | > 100 | 9.4 | 7.2 | – | – |
| Cc1nc(Cn2nc3c(-c4cc(C)[n+]([O-])c(C)c4)c(-c4ccc(F)cc4)nc(N)n3c2=O)c(C)o1 [Example 1-35, 5-amino-2-[(2,5-dimethyloxazol-4-yl)methyl]-8-(2,6-dimethyl-1-oxido-pyridin-1-ium-4-yl)-7-(4-fluorophenyl)-[1,2,4]triazolo[4,3-c]pyrimidin-3-one] | > 100 | 8.4 | 7.4 | – | – |
| Cc1cc(-c2c(-c3ccccc3)nc(N)n3c(=O)n(Cc4nccn4C)nc23)cc(C)[n+]1[O-] [Example 1-36, 5-amino-8-(2,6-dimethyl-1-oxido-pyridin-1-ium-4-yl)-2-[(1-methylimidazol-2-yl)methyl]-7-phenyl-[1,2,4]triazolo[4,3-c]pyrimidin-3-one] | > 100 | 8.0 | 7.3 | – | – |
| Cc1ocnc1Cn1nc2c(-c3cc(C)[n+]([O-])c(C)c3)c(-c3ccc(F)cc3)nc(N)n2c1=O [Example 1-37, 5-amino-8-(2,6-dimethyl-1-oxido-pyridin-1-ium-4-yl)-7-(4-fluorophenyl)-2-[(5-methyloxazol-4-yl)methyl]-[1,2,4]triazolo[4,3-c]pyrimidin-3-one] | > 100 | 8.8 | 6.8 | – | – |
| COc1cc(-c2c(-c3ccccc3)nc(N)n3c(=O)n(Cc4nccn4C)nc23)cc(C)n1 [Example 1-38, 5-amino-8-(2-methoxy-6-methyl-4-pyridyl)-2-[(1-methylimidazol-2-yl)methyl]-7-phenyl-[1,2,4]triazolo[4,3-c]pyrimidin-3-one] | > 100 | 9.5 | 7.8 | – | – |
| Cc1cc(-c2c(-c3ccccc3)nc(N)n3c(=O)n(Cc4nonc4C)nc23)cc(CO)n1 [Example 1-46, 5-amino-8-[2-(hydroxymethyl)-6-methyl-4-pyridyl]-2-[(4-methyl-1,2,5-oxadiazol-3-yl)methyl]-7-phenyl-[1,2,4]triazolo[4,3-c]pyrimidin-3-one] | > 100 | 9.3 | 6.4 | – | – |
| Cc1cc(-c2c(-c3ccc(F)cc3)nc(N)n3c(=O)n(Cc4ccn(C)n4)nc23)cc(CO)n1 [Example 1-52, 5-amino-7-(4-fluorophenyl)-8-[2-(hydroxymethyl)-6-methyl-4-pyridyl]-2-[(1-methylpyrazol-3-yl)methyl]-[1,2,4]triazolo[4,3-c]pyrimidin-3-one] | > 100 | 8.6 | 6.7 | – | – |
| Cc1cc(-c2c(-c3ccc(F)cc3)nc(N)n3c(=O)n(Cc4nc(C)oc4C)nc23)cc(CO)n1 [Example 1-53, 5-amino-2-[(2,5-dimethyloxazol-4-yl)methyl]-7-(4-fluorophenyl)-8-[2-(hydroxymethyl)-6-methyl-4-pyridyl]-[1,2,4]triazolo[4,3-c]pyrimidin-3-one] | > 100 | 9.2 | 6.5 | – | – |
| Cn1ccnc1Cn1nc2c(-c3cc(Cl)nc(CO)c3)c(-c3ccccc3)nc(N)n2c1=O [Example 1-55, 5-amino-8-[2-chloro-6-(hydroxymethyl)-4-pyridyl]-2-[(1-methylimidazol-2-yl)methyl]-7-phenyl-[1,2,4]triazolo[4,3-c]pyrimidin-3-one] | > 100 | 9.4 | 7.5 | – | – |
| Cn1ccnc1Cn1nc2c(-c3cc(Cl)nc(CO)c3)c(-c3ccc(F)cc3)nc(N)n2c1=O [Example 1-58, 5-amino-8-[2-chloro-6-(hydroxymethyl)-4-pyridyl]-7-(4-fluorophenyl)-2-[(1-methylimidazol-2-yl)methyl]-[1,2,4]triazolo[4,3-c]pyrimidin-3-one] | > 100 | 9.5 | 7.1 | – | – |
| COc1cc(-c2c(-c3ccccc3)nc(N)n3c(=O)n(Cc4nccn4C)nc23)cc(CO)n1 [Example 1-61, 5-amino-8-[2-(hydroxymethyl)-6-methoxy-4-pyridyl]-2-[(1-methylimidazol-2-yl)methyl]-7-phenyl-[1,2,4]triazolo[4,3-c]pyrimidin-3-one] | > 100 | 9.5 | 6.8 | – | – |
